Measurements as given in patent US7384931B2, “Constrained compounds as CGRP-receptor antagonists” (Bristol-Myers Squibb Company, priority 2004, dated 2008).

Experiments:
[1] = molecular target: T1, CGRP receptor (Homo sapiens, UniProt O60894+Q16602); experiment: Cyclic AMP functional antagonism assay in SK-N-MC cells; type: cell-based; set-up: SK—N-MC cells that endogenously express the human CGRP receptor; endogenous in cells; host or cells: SK-N-MC cells; conditions: inhibition of 0.3 nM CGRP-induced cyclic AMP formation, 15 min pre-incubation, read-out: cAMP Function IC50
T1 sequence (Q16602 23-461): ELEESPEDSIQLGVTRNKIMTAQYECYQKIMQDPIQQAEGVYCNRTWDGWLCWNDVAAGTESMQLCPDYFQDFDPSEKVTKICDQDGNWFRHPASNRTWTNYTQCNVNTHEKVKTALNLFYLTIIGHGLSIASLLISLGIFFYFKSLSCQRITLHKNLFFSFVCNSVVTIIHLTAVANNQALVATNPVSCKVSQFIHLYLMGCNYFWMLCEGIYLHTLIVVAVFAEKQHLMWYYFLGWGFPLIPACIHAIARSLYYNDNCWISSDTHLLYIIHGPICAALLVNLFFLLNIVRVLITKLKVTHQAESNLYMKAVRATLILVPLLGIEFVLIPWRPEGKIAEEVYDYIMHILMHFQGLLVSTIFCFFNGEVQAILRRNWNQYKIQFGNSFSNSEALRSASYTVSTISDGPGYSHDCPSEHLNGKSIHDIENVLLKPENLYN
T1 sequence (O60894 27-148): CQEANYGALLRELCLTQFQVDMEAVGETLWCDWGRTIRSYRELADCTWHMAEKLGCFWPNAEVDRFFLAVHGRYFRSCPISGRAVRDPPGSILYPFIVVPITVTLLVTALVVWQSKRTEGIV
Method: Cyclic AMP Functional Antagonism Assay. Antagonism of the compounds of invention was determined by measuring the formation of cyclic AMP (adenosine 3′5′-cyclic monophosphate) in SK—N-MC cells that endogenously express the human CGRP receptor. CGRP receptor complex is coupled with Gs protein and CGRP binding to this complex leads to the cyclic AMP production via Gs—dependent activation of an adenylate cyclase (Juaneda C et al., TiPS, 2000; 21:432-438; incorporated by reference herein). Consequently, CGRP receptor antagonists inhibit CGRP—induced cyclic AMP formation in SK—N-MC cells (Doods H et al., Br J Pharmacol, 2000; 129(3):420-423); incorporated by reference herein). For cyclic AMP measurements SK—N-MC cells were incubated with 0.3 nM CGRP alone or in the presence of various concentrations of the compounds of invention for 30 min at room temperature. Compounds of invention were pre-incubated with SK—N-MC cells for 15 min before the addition of CGRP to allow receptor occupancy (Edvinsson et al., Eur J Pharmacol, 2001, 415:39-44; incorporated by reference herein). Cyclic AMP was extracted using the lysis reagent and its concentration was determined by radioimmunoassay using RPA559 cAMP SPA Direct Screening Assay Kit (Amersham Pharmacia Biotech). IC50 values were calculated using Excel fit.

[2] = molecular target: T1, CGRP receptor; experiment: CGRP radioligand binding assay ([125I]-CGRP displacement, SK-N-MC homogenate); set-up: endogenous in cells; host or cells: SK-N-MC cells (homogenate/membrane pellet); conditions: displacement of [125I]-CGRP, room temperature 2 h
Method in brief: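 SK-N-MC cell homogenate (5 μg/well) was incubated 2 h at room temperature with [125I]-CGRP (diluted to 60 pM before addition) in 50 mM Tris-Cl pH 7.5, 5 mM MgCl2, 0.005% Triton X-100 plus protease inhibitors. Bound radioactivity was collected by filtration; 1 μM beta-CGRP defined non-specific binding. IC50 is 50% radioligand displacement.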

Compound | IC50 [1] [nM] | IC50 [2] [nM]
C[C@@H](c1ccccc1)N1Cc2c(ccc3[nH]ncc23)C[C@@H](NC(=O)N2CCC(N3Cc4ccccc4NC3=O)CC2)C1=O [Example 10, 4-(2-Oxo-1,4-dihydro-2H-quinazolin-3-yl)-piperidine-1-carboxylic acid [8-oxo-9-(1-(S)-phenyl-ethyl)-3,6,7,8,9,10-hexahydro-2,3,9-triaza-(R)-cyclohepta[e]inden-7-yl]-amide] | 10 to 100 | 10 to 100
C[C@H](c1ccccc1)N1Cc2c(ccc3[nH]ncc23)C[C@@H](NC(=O)N2CCC(N3Cc4ccccc4NC3=O)CC2)C1=O [Example 11, 4-(2-Oxo-1,4-dihydro-2H-quinazolin-3-yl)-piperidine-1-carboxylic acid [8-oxo-9-(1-(R)-phenyl-ethyl)-3,6,7,8,9,10-hexahydro-2,3,9-triaza-(R)-cyclohepta[e]inden-7-yl]-amide] | 10 to 100 | 10 to 100
O=C(N[C@@H]1Cc2cc(Cl)c3[nH]ncc3c2CN(Cc2ccccc2)C1=O)N1CCC(N2Cc3ccccc3NC2=O)CC1 [Example 12, 4-(2-Oxo-1,4-dihydro-2H-quinazolin-3-yl)-piperidine-1-carboxylic acid (9-benzyl-4-chloro-8-oxo-3,6,7,8,9,10-hexahydro-2,3,9-triaza-(R)-cyclohepta[e]inden-7-yl)-amide] | 0.1 to 10 | 0.1 to 10
CC(C)(C)CN1Cc2c(cc(Cl)c3[nH]ncc23)C[C@@H](CC(=O)N2CCC(N3Cc4ccccc4NC3=O)CC2)C1=O [Example 21, 4-Chloro-9-(2,2-dimethyl-propyl)-7-(S)-{2-oxo-2-[4-(2-oxo-1,4-dihydro-2H-quinazolin-3-yl)-piperidin-1-yl]-ethyl}-6,7,9,10-tetrahydro-3H-2,3,9-triaza-cyclohepta[e]inden-8-one] | 0.1 to 10 | 0.1 to 10
CC(C)(C)CN1Cc2c(ccc3[nH]ncc23)CC(NC(=O)N2CCC(N3Cc4ccccc4NC3=O)CC2)C1=O (centres unmarked) [Example 22, 4-(2-Oxo-1,4-dihydro-2H-quinazolin-3-yl)-piperidine-1-carboxylic acid [9-(2,2-dimethyl-propyl)-8-oxo-3,6,7,8,9,10-hexahydro-2,3,9-triaza-cyclohepta[e]inden-7-yl]-amide] | 0.1 to 10 | 0.1 to 10
CC(C)CN1Cc2c(ccc3[nH]ncc23)CC(NC(=O)N2CCC(N3Cc4ccccc4NC3=O)CC2)C1=O (centres unmarked) [Example 24, 4-(2-Oxo-1,4-dihydro-2H-quinazolin-3-yl)-piperidine-1-carboxylic acid (9-isobutyl-8-oxo-3,6,7,8,9,10-hexahydro-2,3,9-triaza-cyclohepta[e]inden-7-yl)-amide] | 10 to 100 | 10 to 100
O=C(N[C@@H]1Cc2cc3cn[nH]c3cc2CN(Cc2ccccc2)C1=O)N1CCC(N2Cc3ccccc3NC2=O)CC1 [Example 37, (R)-N-(8-Benzyl-7-oxo-1,5,6,7,8,9-hexahydroazepino[4,3-f]indazol-6-yl)-4-(2-oxo-1,2-dihydroquinazolin-3(4H)-yl)piperidine-1-carboxamide] | 10 to 100 | 0.1 to 10
CC(C)(C)CN1Cc2c(cc(Cl)c3[nH]ncc23)C[C@@H](CC(=O)N2CCC(N3Cc4ccccc4CC3=O)CC2)C1=O [Example 41, (S)-4-Chloro-9-neopentyl-7-(2-oxo-2-(4-(3-oxo-3,4-dihydroisoquinolin-2(1H)-yl)piperidin-1-yl)ethyl)-6,7,9,10-tetrahydroazepino[3,4-e]indazol-8(3H)-one] | 0.1 to 10 | 0.1 to 10
CC(C)(C)CN1Cc2c(ccc3[nH]ncc23)C[C@@H](CC(=O)N2CCC(c3cc4ccccc4[nH]c3=O)CC2)C1=O [Example 42, (S)-9-Neopentyl-7-(2-oxo-2-(4-(2-oxo-1,2-dihydroquinolin-3-yl)piperidin-1-yl)ethyl)-6,7,9,10-tetrahydroazepino[3,4-e]indazol-8(3H)-one] | 10 to 100 | 10 to 100
CC(C)(C)CN1Cc2c(cc(Cl)c3[nH]ncc23)C[C@@H](CC(=O)N2CCC(c3cc4ccccc4[nH]c3=O)CC2)C1=O [Example 43, (S)-4-Chloro-9-neopentyl-7-(2-oxo-2-(4-(2-oxo-1,2-dihydroquinolin-3-yl)piperidin-1-yl)ethyl)-6,7,9,10-tetrahydroazepino[3,4-e]indazol-8(3H)-one] | 0.1 to 10 | 0.1 to 10
CC(C)(C)CN1Cc2c(cc(Cl)c3[nH]ncc23)C[C@@H](CC(=O)N2CCC(c3cc4c(F)cccc4[nH]c3=O)CC2)C1=O [Example 118] | – | 10 to 100
CC(C)(C)CN1Cc2c(cc(Cl)c3[nH]ncc23)C[C@@H](CC(=O)N2CCC(c3cc4ccc(F)cc4[nH]c3=O)CC2)C1=O [Example 120] | – | 0.1 to 10
(7S)-9-Benzyl-7-(2-oxo-2-(4-(2-oxo-1,2,3,4-tetrahydroquinolin-3-yl)piperazin-1-yl)ethyl)-6,7,9,10-tetrahydroazepino[3,4-e]indazol-8(3H)-one [Example 58] | – | 100 to 1000

Continued, values first:

IC50 [1] [nM] | IC50 [2] [nM] | Compound
10 to 100 | 10 to 100 | O=C(N[C@@H]1Cc2ccc3[nH]ncc3c2CN(Cc2ccccc2)C1=O)N1CCC(N2Cc3ccccc3NC2=O)CC1 [Example 1, 4-(2-Oxo-1,4-dihydro-2H-quinazolin-3-yl)-piperidine-1-carboxylic acid (9-benzyl-8-oxo-3,6,7,8,9,10-hexahydro-2,3,9-triaza-(R)-cyclohepta[e]inden-7-yl)-amide]
10 to 100 | 10 to 100 | CC(C)(C)CN1C(=O)C(CC(=O)N2CCC(N3Cc4ccccc4NC3=O)CC2)Cc2cc3[nH]ncc3cc21 (centres unmarked) [Example 6, 5-Neopentyl-7-(2-oxo-2-(4-(2-oxo-1,2-dihydroquinazolin-3(4H)-yl)piperidin-1-yl)ethyl)-7,8-dihydro-1H-pyrazolo[3,4-g]quinolin-6(5H)-one]
0.1 to 10 | 0.1 to 10 | CC(C)(C)CCN1Cc2c(ccc3[nH]ncc23)C[C@@H](NC(=O)N2CCC(N3Cc4ccccc4NC3=O)CC2)C1=O [Example 16, 4-(2-Oxo-1,4-dihydro-2H-quinazolin-3-yl)-piperidine-1-carboxylic acid [9-(3,3-dimethyl-butyl)-8-oxo-3,6,7,8,9,10-hexahydro-2,3,9-triaza-(R)-cyclohepta[e]inden-7-yl]-amide]
0.1 to 10 | 0.1 to 10 | CC(C)(C)CN1Cc2c(cc(Cl)c3[nH]ncc23)C[C@@H](NC(=O)N2CCC(N3Cc4ccccc4NC3=O)CC2)C1=O [Example 20, 4-(2-Oxo-1,4-dihydro-2H-quinazolin-3-yl)-piperidine-1-carboxylic acid [4-chloro-9-(2,2-dimethyl-propyl)-8-oxo-3,6,7,8,9,10-hexahydro-2,3,9-triaza-(R)-cyclohepta[e]inden-7-yl]-amide]
10 to 100 | 10 to 100 | O=C(NC1Cc2ccc3[nH]ncc3c2CN(Cc2ccncc2)C1=O)N1CCC(N2Cc3ccccc3NC2=O)CC1 (centres unmarked) [Example 28, 4-(2-Oxo-1,4-dihydro-2H-quinazolin-3-yl)-piperidine-1-carboxylic acid (8-oxo-9-pyridin-4-ylmethyl-3,6,7,8,9,10-hexahydro-2,3,9-triaza-cyclohepta[e]inden-7-yl)-amide]
10 to 100 | 10 to 100 | Cc1cc2c(c3cn[nH]c13)CN(C)C(=O)C(NC(=O)N1CCC(N3Cc4ccccc4NC3=O)CC1)C2 (centres unmarked) [Example 30, 4-(2-Oxo-1,4-dihydro-2H-quinazolin-3-yl)-piperidine-1-carboxylic acid (4,9-dimethyl-8-oxo-3,6,7,8,9,10-hexahydro-2,3,9-triaza-cyclohepta[e]inden-7-yl)-amide]
10 to 100 | 10 to 100 | CC(C)(C)CN1Cc2c(ccc3[nH]ncc23)C[C@@H](CC(=O)N2CCC(N3Cc4cccc(F)c4NC3=O)CC2)C1=O [Example 39, (S)-7-(2-(4-(8-Fluoro-2-oxo-1,2-dihydroquinazolin-3(4H)-yl)piperidin-1-yl)-2-oxoethyl)-9-neopentyl-6,7,9,10-tetrahydroazepino[3,4-e]indazol-8(3H)-one]
0.1 to 10 | 0.1 to 10 | CC(C)(C)CN1Cc2c(cc(Cl)c3[nH]ncc23)C[C@@H](CC(=O)N2CCC(N3Cc4cccc(F)c4NC3=O)CC2)C1=O [Example 40, (S)-4-Chloro-7-(2-(4-(8-fluoro-2-oxo-1,2-dihydroquinazolin-3(4H)-yl)piperidin-1-yl)-2-oxoethyl)-9-neopentyl-6,7,9,10-tetrahydroazepino[3,4-e]indazol-8(3H)-one]
– | 100 to 1000 | CC(C)(C)CN1Cc2c(cc(Cl)c3[nH]ncc23)C[C@@H](CC(=O)N2CCC(c3cc4cccc(Cl)c4[nH]c3=O)CC2)C1=O [Example 117]
– | > 1000 | CC(C)(C)CN1Cc2c(cc(Cl)c3[nH]ncc23)C[C@@H](CC(=O)N2CCC(c3cc4ccc(F)nc4[nH]c3=O)CC2)C1=O [Example 119]
